Measurements published in patent publication US20100022457A1 (Bristol-Myers Squibb Company, priority 2006, published 2010).
Like-named read-outs stand apart in the source and are kept apart here. Where a SMILES comes first, the peptide text is derived from it. [ ]: non-standard residue; d: D form. Ala(6-(2-MePh)pyridin-3-yl) = Cc1ccccc1-c1ccc(C[C@H](N)C(=O)O)cn1; Bip(2'-Et-4'-OMe) = CCc1cc(OC)ccc1-c1ccc(C[C@H](N)C(=O)O)cc1; αMePhe(2-F) = C[C@](N)(Cc1ccccc1F)C(=O)O; Aib = CC(C)(N)C(=O)O

How the values were obtained:
C57BL/6J-ob/ob mice = assay: Intraperitoneal glucose tolerance test (ipGTT) in ob/ob mice after subcutaneous injection; format: in vivo, mouse
Protocol: Peptides were dissolved in an appropriate vehicle at a concentration in nmol/ml equivalent to the dose that was to be administered in nmol/kg so that each mouse would receive the same volume/weight of dosing solution. Male C57BL/6J-ob/ob mice (10 weeks old) were randomized into groups of 6 mice per group based on fed plasma glucose and body weight. After an overnight fast, mice were weighed and placed in the experimental lab. After 30 min in the environment, the mice were bled via tail tip at −30 min and immediately injected subcutaneously (sc) with vehicle or the peptide dissolved in vehicle (0.1 ml solution/100 g body weight). At time 0 the mice were bled and then injected intraperitoneally with 50% glucose (2 g/kg) to initiate the intraperitoneal glucose tolerance test (ipGTT). The mice were bled 30, 60, 120 and 180 min after the glucose injection. Blood samples were drawn into potassium EDTA, placed on ice during the study and subsequently centrifuged for 10 min at 3000 rpm at 4° C. Plasma samples were diluted 1-fold for glucose analysis in the Cobas System. Another 5 μl plasma sample was diluted 5-fold with 20 μl of Sample Diluent (Insulin ELISA assay kit, Crystal Chem Inc.) and stored at −20° C. for subsequent analysis using the Ultra Sensitive Mouse Insulin ELISA kit (Crystal Chem Inc.).

[1] = Exposure during ipGTT in ob/ob mice; format: in vivo, mouse; conditions: sc
[2] = Dog pharmacokinetic study (intravenous and subcutaneous, 67 μg/kg); format: in vivo; conditions: for half-life: read-out: t1/2 (converted)
Protocol: The pharmacokinetic parameters of the compound of SEQ ID NO:9 were determined in male beagle dogs (n=4, 14±1 kg). Following an overnight fast, each animal received the compound of SEQ ID NO:9 either as an intravenous bolus via femoral vein (67 μg/kg) or by subcutaneous injection given at near the shoulder blades (67 μg/kg). Each animal received both intravenous and subcutaneous doses with a one-week washout between doses following a crossover design. […] Serial blood samples were collected in EDTA-containing microcentrifuge tubes at predose, 0.083, 0.25, 0.5, 0.75, 1, 2, 4, 6, 8, 24, and 30 hours post-dose after intravenous administration; at predose, 0.25, 0.5, 0.75, 1, 2, 4, 6, 8, 24, and 30 hours post-dose after subcutaneous administration. Approximately 0.3 mL of blood was collected at each time point. Blood samples were immediately centrifuged at 4° C. The obtained plasma was frozen with dry ice and stored at −20° C. Plasma drug levels were determined using the LC-MS/MS assay described above.
Plasma samples from in vivo dog study were prepared for analysis by precipitating plasma proteins with two volumes of acetonitrile containing an internal standard. The samples were vortex mixed and removed the precipitated proteins by centrifugation. The resulting supernatants were transferred to a 96-well plate and 10 μL were injected for analysis. Samples were prepared with the Packard Multiprobe II and Quadra 96 Liquid Handling System.
The HPLC system consisted of two Shimadzu LC10AD pumps (Columbia, Md.), a CTC PAL autosampler (Leap Technologies, Switzerland). The column used was a YMC Hydrosphere C18 (2.0×50 mm, 3 μm) (YMC, Inc., Milford, Mass.). The column temperature was maintained at 50° C. and the flow rate was 0.3 mL/minute. The mobile phase A consisted of 10 mM ammonium formate and 0.1% formic acid in water and mobile phase B consisted of 0.1% formic acid in acetonitrile. The initial mobile phase composition was 5% B, and remained at 5% B for one minute to equilibrate the column. The composition was ramped to 95% B over two minutes and held there for one additional minute. The mobile phase was then returned to initial conditions in one minute. Total analysis time was five minutes. A switching valve was used. The eluents between 0-1 minute were diverted to the waste.
The HPLC was interfaced to a Sciex API 4000 mass spectrometer, (Applied Biosystems, Foster City, Calif.) and was equipped with a TurboIonspray ionization source. Ultra high purity nitrogen was used as the nebulizing and turbo gas. The temperature of turbo gas was set at 300° C. and the interface heater was set at 60° C. Data acquisition utilized selected reaction monitoring (SRM). Ions representing the (M+2H)^2+ species for the compound of SEQ ID NO:9, and (M+2H)^2+ for BMS-501143 (IS) were selected in Q1 and were collisionally dissociated with high purity nitrogen at a pressure of 3.5×10^−3 torr to form specific product ions which were subsequently monitored by Q3.
The standard curve concentrations, ranging from 1 to 1000 nM and from 4 to 5000 nM, were used for the in vivo samples obtained from low and high doses, respectively. The curves were fitted with a quadratic regression weighted by reciprocal […]. Standards were analyzed in duplicate. Quality control (QC) samples, prepared in blank matrix at the same concentrations as the standard were also analyzed in each analytical set. For the compound of SEQ ID NO:9, the calculated concentrations of more than 80% of the QCs were within 20% of nominal concentration, indicating acceptable assay performance.
The compound of SEQ ID NO:9 plasma concentration vs. time data were analyzed by noncompartmental methods using the […]™ software program. The Cmax and Tmax values were recorded directly from experimental observations. The AUC0-n and AUCtot values were calculated using a combination of linear and log trapezoidal summations. […]

[3] = Solubility of protamine/Compound of SEQ ID NO:9 adduct and in protamine solution; format: physicochemical
Text: Thus, the administration of the protamine/Compound of SEQ ID NO:9 adduct may need a suitable suspending agent; or it maybe injected as dry powder.
Therefore, suspension of the compound of SEQ ID NO:9 in the presence of protamine could still provide extended release effect without using pre-formed protamine/SEQ ID NO:9 adduct.

[4] = male, beagle, plasma, 67 ug/kg, dog, intravenous 67 μg/kg, propylene glycol:phosphate buffer (50:50)
[5] = male, beagle, plasma, sc, 67 ug/kg, dog, subcutaneous 67 μg/kg, propylene glycol:phosphate buffer (50:50)

- Exposure/dose during ipGTT in ob/ob mice [1]: 18 nM*h/nmol/kg
- Exposure in dogs (sc@67 μg/kg) ([2]; Table I, vehicle 0.2 M Tris buffer (pH 8.0)): 452 nM·h
- Exposure in dogs (sc@67 μg/kg) ([2]; Table II, vehicle propylene glycol/pH 7.4 phosphate buffer (1:1)): 1230 nM·h
- Vss as % of extracellular fluid ([2]; dog, extracellular fluid 0.14 L/kg): 71 % of extracellular fluid
- systemic clearance as % of liver blood flow ([2]; dog, liver blood flow 31 mL/min/kg): 3.2 % of liver blood flow
- Vss as times of vascular fluid ([2]; dog, vascular fluid 0.05 L/kg): 2 times of vascular fluid
- AUC [2, 4]: 1.27 ± 0.299 µM·h
- MRT [2, 4]: 3 ± 1 h
- clearance ([2]; male, beagle, plasma, 67 ug/kg, dog, intravenous 67 μg/kg, propylene glycol:phosphate buffer (50:50), read-out: CLp): 0.6 ± 0.1 mL/min/kg
- Vd ([2]; male, beagle, plasma, 67 ug/kg, dog, intravenous 67 μg/kg, propylene glycol:phosphate buffer (50:50), read-out: VSS): 0.1 ± 0.03 L/kg
- half-life [2, 4]: 306 ± 30 min
- AUC [2, 5]: 1.22 ± 0.276 µM·h
- MRT [2, 5]: 12.5 ± 2.4 h
- Tmax [2, 5]: 5 ± 1 h
- half-life [2, 5]: 414 ± 78 min
- Cmax ([2]; male, beagle, plasma, sc, 67 ug/kg, dog, subcutaneous 67 μg/kg, text of b538, read-out: maximum plasma concentration (Cmax)): 90 ± 29 nM
- clearance ([2]; male, beagle, whole blood, 67 ug/kg, dog, intravenous 67 μg/kg, propylene glycol:phosphate buffer (50:50), read-out: CLB (systemic clearance)): 0.9 ± 0.2 mL/min/kg
- solubility ([3]; MeOH): > 50 mg/mL
Compound: CCc1cc(OC)ccc1-c1ccc(C[C@H](NC(=O)[C@H](CC(=O)O)NC(=O)[C@H](CO)NC(=O)[C@@H](NC(=O)[C@](C)(Cc2ccccc2F)NC(=O)[C@@H](NC(=O)CNC(=O)[C@H](CCC(=O)O)NC(=O)C(C)(C)NC(=O)[C@@H](N)Cc2c[nH]cn2)[C@@H](C)O)[C@@H](C)O)C(=O)N[C@@H](Cc2ccc(-c3ccccc3C)nc2)C(N)=O)cc1 [SEQ ID NO: 9] (H-H[Aib]EGT[αMePhe(2-F)]TSD[Bip(2'-Et-4'-OMe)][Ala(6-(2-MePh)pyridin-3-yl)]-NH2)
- Potency in ob/ob mice: % AUC Reduction in Plasma Glucose in an IP Glucose Tolerance Test after SC Injection of Compound (C57BL/6J-ob/ob mice; 10 nmol/kg sc, relative to vehicle-treated group): −68% (p < 0.0001)
- maximum increase in postprandial insulin AUC (C57BL/6J-ob/ob mice; 30 nmol/kg sc, ipGTT ob/ob mice): 187.7%
- plasma glucose AUC decrease (C57BL/6J-ob/ob mice; 100 nmol/kg sc, ipGTT ob/ob mice): 85.8%
- effect on postprandial plasma glucose (C57BL/6J-ob/ob mice; sc in ob/ob mice, between 0 and 180 or 210 minutes): statistically significant decrease
- Potency in ob/ob mice ED50 (C57BL/6J-ob/ob mice; sc injection, plasma glucose AUC in ipGTT): 5 nmol/kg
- solubility as a function of protamine in the solution ([3]; pH 6.8, 50 mM PB buffer): decreases with increase of protamine in the solution
